“Also recorded” adds a separate entry of the source. Like-named read-outs stand apart in the source and are kept apart here. Blank lines part the entries; values can stand above or below the molecule they belong to. Where a SMILES comes first, the peptide text is derived from it. Bridges are numbered along the chain shown (N, C = ends).
How the values were obtained:
RP-HPLC retention time = format: physicochemical; details: semi-preparative RP-HPLC, C18 column, linear gradient 5 to 80% (v/v) acetonitrile in water with 0.1% TFA within 50 min
Method: Figure 2 Structure analysis of the novel BRICHOS-related peptides HfBRI-25 and HfBRI-28. (A) Characteristics of the obtained peptides. ^1 Mean Kyte–Doolittle hydrophobicity index (GRAVY) was calculated using the Expasy ProtParam tool. The maximum and minimum values of this index are +4.5 and −4.5 for poly-Ile and poly-Arg sequences, respectively. ^2 Percentage of hydrophobic amino acids was calculated using the APD3 database. ^3 Retention times were measured using semi-preparative reversed-phase high-performance liquid chromatography (RP-HPLC) on a C18 column with a linear gradient from 5 to 80% (v/v) acetonitrile in water containing 0.1% trifluoroacetic acid (TFA) within 50 min. ^4 Molecular masses were calculated by considering the presence of four Cys residues forming two disulfide bonds in the case of HfBRI-25. ^5 Molecular masses were determined experimentally using MALDI-TOF mass spectrometry. (B) Spatial structures of HfBRI-25 and HfBRI-28 were modeled using the AlphaFold algorithm (ColabFold server). The top-rated models, according to predicted local distance difference test (pLDDT) scores, were visualized by the PyMOL software. (C) The CD-spectra of the peptides in water or in the presence of 30 mM DPC micelles. (D) The CONTINLL program was used for CD data analysis. […]

[1] = system: human red blood cells (hRBCs); test: Hemolysis, hemoglobin release assay; format: cell-based
Method: Figure 3 Biological activity of the peptides towards human cells. (A) Hemolytic effect on human red blood cells (hRBCs) after 2 h incubation (the hemoglobin release assay). (B) Cytotoxicity towards transformed human embryonic kidney cells (HEK293T) after 16 h incubation (the resazurin assay).
The hemolytic activity of the peptides was tested against the fresh suspension of human red blood cells (hRBC) using the hemoglobin release assay, as described previously. Two experiments were performed with hRBC from blood samples of independent donors. The quantitative data are represented as average means with standard deviations. The cytotoxic effect of the peptides was tested on transformed human embryonic kidney cells (HEK293T) using the resazurin assay. The technique is based on the ability of live cell dehydrogenases to reduce a blue resazurin to pink and fluorescent resorufin. A total of 10^4 cells per well in Dulbecco’s modified Eagle’s medium (DMEM/F12) supplemented with 10% FBS were placed into 96-well plates for 24 h in the CO2-incubator (5% CO2, 37 °C). […] Fluorescence of the formed resorufin was measured with the microplate reader AF2200 (Eppendorf, Germany) using the following channel: λExc = 535 nm, λEm = 595 nm. The fluorescence signal in the wells containing cells cultured without the peptides was assumed to represent 100% cell viability. […]

[2] = system: E. coli ML-35p cytoplasmic membrane; test: Cytoplasmic membrane permeabilization, ONPG hydrolysis; format: cell-based, Escherichia coli; details: at concentrations ≥ MIC values, PBS, 37 °C, ONPG 2.5 mM, OD405
Method: Cationic AMPs perform their antibacterial function by damaging membrane integrity and/or specifically inhibiting intracellular processes. In this study, an effect of the obtained peptides on bacterial cytoplasmic membrane integrity was analyzed with the use of E. coli ML-35p, the strain constitutively expressing β-galactosidase and lacking the functional lactose permease which is necessary for the uptake of o-nitrophenyl-β-D-galactoside (ONPG). When β-galactosidase cleaves ONPG, β-D-galactose and o-nitrophenol are released. The latter is a chromogenic product with absorbance at 405 nm. […] Thus, the rapid membranolytic mode of action seems to be predominant for the HfBRI-28 peptide.
Figure 4 Kinetics of changes in the E. coli ML35p cytoplasmic membrane permeability measured with the use of ONPG (OD405) hydrolysis caused by the examined peptides. Peptide concentrations (μM) are presented within the dashed box. […]
To examine the ability of the peptides to affect the barrier function of inner membrane of Gram-negative bacteria, we used the E. coli ML-35p strain constitutively expressing cytoplasmic β-galactosidase but lacking lactose permease. The state of the E. coli ML-35p cytoplasmic membrane was assessed based on its permeability to chromogenic marker o-nitrophenyl-β-D-galactopyranoside (ONPG, AppliChem), which is the β-galactosidase substrate. […]

Escherichia coli ML-35p = details: salt-containing MHB supplemented with 5% FBS, compared with no FBS
Excerpt: (§1) The results were expressed as the median values determined on the basis of at least three independent experiments performed in triplicate.

[3] = system: E. coli strains with the MCR-1-mediated colistin resistance; test: MIC against strains with MCR-1-mediated colistin resistance; format: cell-based, Escherichia coli; details: two strains with MCR-1-mediated colistin resistance; medium not stated
Excerpt: as §1

E. coli MDR CI 1057 = details: Mueller–Hinton broth supplemented with 0.9% NaCl, 37 °C
Method: Resistance induction experiments were performed using the previously described method. Briefly, on day one, the overnight culture of wild-type bacteria was diluted with the 2× MH broth supplemented with 1.8% NaCl to reach a final cell concentration of 10^6 CFU/mL.

[4] = 25% human serum in PBS (pH 7.4) from healthy donor; details: 37 °C, up to 24 h
trypsin = trypsin in 100 mM Tris/HCl buffer (pH 8.0); details: 37 °C, up to 16 h
[5] = 25% human serum in PBS pH 7.4, 37 °C, RP-HPLC, ratio estimated from MALDI-TOF MS, two independent experiments
[6] = system: E. coli K12 SBS 1936 biofilm; test: Effect on established biofilm, MTT assay; format: cell-based, Escherichia coli; details: wide concentration range, 24 h pre-formed biofilm, 16 h treatment in LB, 37 °C
Method: Bacterial biofilms play an important role in UTIs, being responsible for their persistence. Therefore, the eradication of mature biofilms is an extremely challenging task because high concentrations or doses of antibacterial agents are required. Here, the ability of HfBRI-25 to disrupt established biofilms was evaluated as a number of viable bacteria in biofilm using the MTT assay. According to our previous data, E. coli K12 SBS 1936 was chosen as a strong biofilm-producer that can form it in different media.
E. coli K12 SBS1936 was grown in LB broth overnight at 37 °C and diluted in the same media to obtain 1 × 10^6 CFU/mL. A total of 100 μL of bacterial suspension was added to each well of the 96-well polystyrene plate and grown at 32 °C and 120 rpm for 24 h. The wells were washed twice with sterile water to remove non-adherent cells. In parallel, 100 μL of peptide or ciprofloxacin solutions, serially diluted in LB medium using a separate 96-well polystyrene plate, were added to each well with pre-formed biofilm and incubated at 37 °C and 180 rpm for 16 h. Biofilm viability was assessed by using the MTT reagent (Sigma). […] Absorbance of each well was measured at 570 nm. Bacterial survival was calculated as a percentage relative to samples without antimicrobial agent. […]

E. coli ATCC 25922 = details: BALB/c mice, n = 5, i.p. infection 10^6 CFU with 2.5% mucin; 10 mg/kg i.p. at 1 h and 4 h after infection; 7 days

Molecule: CC[C@H](C)[C@H](NC(=O)CNC(=O)[C@H](CCCCN)NC(=O)[C@H](Cc1c[nH]c2ccccc12)NC(=O)[C@@H](NC(=O)[C@H](CO)NC(=O)[C@H](CCCCN)NC(=O)[C@H](CC(C)C)NC(=O)[C@H](Cc1c[nH]c2ccccc12)NC(=O)CN)[C@@H](C)CC)C(=O)N[C@@H](CCCCN)C(=O)N[C@@H](CCCCN)C(=O)N[C@@H](C)C(=O)N[C@H](C(=O)N[C@@H](CCCCN)C(=O)N[C@@H](Cc1c[nH]c2ccccc12)C(=O)N[C@H](C(=O)N[C@@H](CC(C)C)C(=O)N[C@@H](CCCNC(=N)N)C(=O)N[C@@H](Cc1c[nH]cn1)C(=O)NCC(=O)N[C@H](C(=O)N[C@@H](Cc1ccc(O)cc1)C(=O)N[C@H](C(=O)N[C@@H](CCCNC(=N)N)C(=O)N[C@H](C(=O)N[C@H](C(=O)N[C@@H](Cc1ccccc1)C(=O)O)[C@@H](C)O)[C@@H](C)CC)C(C)C)C(C)C)C(C)C)C(C)C [HfBRI-28] (H-GWLKSIWKGIKKAVKWVLRHGVYVRITF-OH)
RP-HPLC Retention Time (RP-HPLC retention time): 40.5 min
Hemolytic effect on human red blood cells [1]: strong hemolytic effect
Membrane damage [2]: effectively damaged membranes
Increase in MIC in the presence of serum (Escherichia coli ML-35p): four- to eight-fold

Molecule: polymyxin B [reference compound]
MIC against MCR-1 colistin-resistant strains [3]: 2 µM
Initial MIC value before resistance selection (E. coli MDR CI 1057): 0.125 µM

cleaved bond [4]: Pro2-R3, major, 1 h
Molecule: SPRGCFCVWISVNGRRVRRCWGSGC
fragment found (trypsin): (4–16), major; also recorded: (19–25), major

Molecule: CC[C@H](C)[C@@H]1NC(=O)[C@H](Cc2c[nH]c3ccccc23)NC(=O)[C@H](C(C)C)NC(=O)[C@@H]2CSSC[C@H](NC(=O)[C@H](CCCNC(=N)N)NC(=O)[C@H](CCCNC(=N)N)NC(=O)[C@H](C(C)C)NC(=O)[C@H](CCCNC(=N)N)NC(=O)[C@H](CCCNC(=N)N)NC(=O)CNC(=O)[C@H](CC(N)=O)NC(=O)[C@H](C(C)C)NC(=O)[C@H](CO)NC1=O)C(=O)N[C@@H](Cc1c[nH]c3ccccc13)C(=O)NCC(=O)N[C@@H](CO)C(=O)NCC(=O)N[C@H](C(=O)O)CSSC[C@H](NC(=O)CNC(=O)[C@@H](N)CCCNC(=N)N)C(=O)N[C@@H](Cc1ccccc1)C(=O)N2 [form “b”] (H-RGCFCVWISVNGRRVRRCWGSGC-OH; disulfide 3-23, 5-18; N-terminus and C-terminus assumed)
a/b (%), ratio of the peptide forms in serum ([5]; time 0 h): 0%
a/b (%), ratio of the peptide forms in serum ([5]; time 1 h): 61%
a/b (%), ratio of the peptide forms in serum ([5]; time 3 h): 94%
a/b (%), ratio of the peptide forms in serum ([5]; time 24 h): 100%

Molecule: O=C(O)c1cn(C2CC2)c2cc(N3CCNCC3)c(F)cc2c1=O [ciprofloxacin, reference compound]
Anti-biofilm efficiency (bacterial viability inside established biofilm) [6]: high efficiency at a wide concentration range
Survival / therapeutic efficacy (E. coli ATCC 25922): survival of all mice
